The results in this text go back to patent publication US6444685B1, “N-(4-sulfonylaryl)Cyclylamine 2-hydroxyethylamines as beta-3 adrenergic receptor agonists” (Wyeth, priority 2000, dated 2002).

In data set [1] the target is T1, human β3 adrenergic receptor (Homo sapiens, UniProt P13945).
T1 construct: Full length β3 AR clones (402 amino acids) containing the last 6 amino acids of hβ3— AR are prepared; expressed in transfected cells; host or cells: CHO cells
The data set is described as follows: cAMP accumulation (SPA) in CHO cells transfected with human β3 adrenergic receptor. Type of data set: cell-based. The conditions noted are these: for EC50: CHO cells expressing human β3-AR, cAMP, 30 min incubation, 10^−9 M to 10^−5 M, read-out: beta-3 EC50; for beta-3 (IA) maximal response relative to isoproterenol: IA = % activity compound / % activity isoproterenol at 10^−5 M, CHO human β3 cells. In a few lines:
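CHO cells expressing human β3-AR (70–110 fmol/mg protein) treated with compound at 10^−9 to 10^−5 M in DMEM with 250 μM IBMX and 1 mM ascorbic acid, 30 min, 37 °C. cAMP measured by SPA; EC50 derived, and intrinsic activity expressed relative to the maximal response of 10^−5 M isoproterenol.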

Data set [2] has as its target T2, human β1-adrenergic receptor (Homo sapiens, UniProt P08588).
T2 construct: expressed in transfected cells; host or cells: CHO cells
The data set is described as follows: cAMP accumulation (SPA) in CHO cells transfected with human β1 adrenergic receptor. Type of data set: cell-based. The conditions noted are these: for EC50: CHO cells transfected with human β1-AR, cAMP, 15 min incubation, 10^−8 to 10^−4 M, read-out: beta-1 EC50; for beta-1 (IA) maximal response relative to isoproterenol: IA = % activity compound / % activity isoproterenol at 10^−5 M, CHO human β1 cells. In a few lines:
(§1)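 CHO cell clones expressing 70–110 fmol/mg protein of receptor were pre-incubated 30 min at 37 °C, then treated 15 min at 37 °C with compound (10^−8 to 10^−4 M) in DMEM with 250 μM IBMX and 1 mM ascorbic acid. cAMP was read by SPA after acid stop. EC50 and IA were expressed relative to maximal 10^−5 M isoproterenol response.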

In data set [3] the target is T3, human β2-adrenergic receptor (Homo sapiens, UniProt P07550).
T3 construct: expressed in transfected cells; host or cells: CHO cells
The data set is described as follows: cAMP accumulation (SPA) in CHO cells transfected with human β2 adrenergic receptor. Type of data set: cell-based. The conditions noted are these: for EC50: CHO cells transfected with human β2-AR, cAMP, 15 min incubation, 10^−8 to 10^−4 M, read-out: beta-2 EC50; for beta-2 (IA) maximal response relative to isoproterenol: IA = % activity compound / % activity isoproterenol at 10^−5 M, CHO human β2 cells. Summed up:
as §1

Counter-ions that a name gives are not always drawn.

T2 sequence (P08588 whole entry): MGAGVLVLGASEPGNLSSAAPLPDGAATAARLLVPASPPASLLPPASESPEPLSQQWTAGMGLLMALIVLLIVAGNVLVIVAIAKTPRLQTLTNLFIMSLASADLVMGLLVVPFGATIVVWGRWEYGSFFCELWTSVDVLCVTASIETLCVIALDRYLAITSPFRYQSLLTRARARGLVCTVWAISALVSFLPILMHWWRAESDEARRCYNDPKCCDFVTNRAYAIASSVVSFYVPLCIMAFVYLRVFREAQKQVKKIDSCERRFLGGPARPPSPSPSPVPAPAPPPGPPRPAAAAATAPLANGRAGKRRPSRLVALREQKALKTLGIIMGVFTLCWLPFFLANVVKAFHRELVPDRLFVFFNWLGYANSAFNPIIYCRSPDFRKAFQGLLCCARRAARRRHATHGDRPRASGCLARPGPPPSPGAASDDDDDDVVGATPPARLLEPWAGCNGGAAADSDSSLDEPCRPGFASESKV
T1 sequence (P13945 whole entry): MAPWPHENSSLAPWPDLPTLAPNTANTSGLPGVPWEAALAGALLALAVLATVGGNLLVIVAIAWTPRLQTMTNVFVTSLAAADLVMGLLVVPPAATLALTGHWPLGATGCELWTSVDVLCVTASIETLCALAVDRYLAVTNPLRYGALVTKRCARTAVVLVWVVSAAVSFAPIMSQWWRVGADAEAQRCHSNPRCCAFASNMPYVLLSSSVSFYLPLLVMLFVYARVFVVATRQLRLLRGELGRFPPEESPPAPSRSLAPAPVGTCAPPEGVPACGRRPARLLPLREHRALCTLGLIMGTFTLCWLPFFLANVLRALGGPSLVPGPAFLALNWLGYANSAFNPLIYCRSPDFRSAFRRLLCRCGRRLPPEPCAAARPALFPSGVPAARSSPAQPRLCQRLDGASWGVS
T3 sequence (P07550 whole entry): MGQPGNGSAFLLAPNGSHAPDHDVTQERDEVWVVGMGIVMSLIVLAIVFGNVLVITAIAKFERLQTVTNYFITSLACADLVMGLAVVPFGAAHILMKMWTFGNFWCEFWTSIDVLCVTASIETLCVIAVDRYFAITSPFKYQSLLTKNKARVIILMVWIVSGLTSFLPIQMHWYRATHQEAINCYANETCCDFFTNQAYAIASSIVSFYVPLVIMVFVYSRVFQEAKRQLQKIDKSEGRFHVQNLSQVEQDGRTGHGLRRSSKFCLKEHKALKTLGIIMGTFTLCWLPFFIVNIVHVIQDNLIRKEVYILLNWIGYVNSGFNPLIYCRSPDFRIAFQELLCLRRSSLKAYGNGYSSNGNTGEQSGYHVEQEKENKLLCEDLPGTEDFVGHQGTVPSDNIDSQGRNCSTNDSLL

In turn, `CC(C)OC(=O)C1CCCN1S(=O)(=O)c1ccc(N2CCC(NCC(O)COc3cccc4[nH]c(=O)[nH]c34)CC2)cc1` (stereo not shown) [Example 16, 1-(4-{4-[2-Hydroxy-3-(2-oxo-2,3-dihydro-1H-benzoimidazol-4-yloxy)-propylamino]-piperidin-1-yl}-benzenesulfonyl)-pyrrolidine-2-carboxylic Acid Isopropyl Ester] displayed a melting point of 74 to 83 °C. Moreover, in data set [1], the EC50 came to 3 nM and the “beta-3 (IA) maximal response relative to isoproterenol” value is “(0.86)”.

In turn, `Cc1ccc(S(=O)(=O)c2ccc(N3CCC(NC[C@H](O)COc4cccc5[nH]c(=O)[nH]c45)CC3)cc2)cc1` [Example 46, 4-((2S)-2-Hydroxy-3-{1-[4-(toluene-4-sulfonyl)-phenyl]-piperidin-4-ylamino}-propoxy)-1,3-dihydro-benzoimidazol-2-one] registered a melting point of 130 to 132 °C. For the same molecule, in data set [1], the EC50 turned out to be 9 nM and the “beta-3 (IA) maximal response relative to isoproterenol” value is “(1.1)”.

`CCCCNS(=O)(=O)c1ccc(N2CCC(NC[C@H](O)c3ccc(O)c(NS(C)(=O)=O)c3)CC2)cc1` [Example 14, N-Butyl-4-{4-[(2R)-2-hydroxy-2-(4-hydroxy-3-methanesulfonylamino-phenyl)-ethylamino]-piperidin-1-yl}-benzenesulfonamide] gave a melting point of 71 to 75 °C. In data set [2], the EC50 was 640 nM and the “beta-1 (IA) maximal response relative to isoproterenol” value is “(1)”. Also, in data set [1], the EC50 came to 1 nM and the “beta-3 (IA) maximal response relative to isoproterenol” value was “(1.3)”. Further, in data set [3], the EC50 stood at 170 nM and the “beta-2 (IA) maximal response relative to isoproterenol” value is given as “(0.53)”.

For the molecule `CS(=O)(=O)Nc1cc([C@@H](O)CNC2CCN(c3ccc(S(=O)(=O)N(CC(=O)O)CC(=O)O)cc3)CC2)ccc1O` (as salt: salt) [Example 55, 2-((Carboxymethyl)[(4-{4-[((2R)-2-hydroxy-2-{4-hydroxy-3-[(methylsulfonyl)amino]phenyl)ethyl)amino]-1-piperidinyl}phenyl)sulfonyl]amino}acetic Acid], the melting point lay within 163 to 166 °C.

Consider `CCCCNS(=O)(=O)c1ccc(N2CCC(NC[C@H](O)COc3cccc4[nH]c(=O)[nH]c34)CC2)cc1` [Example 12, N-Butyl-4-{4-[(2S)-2-hydroxy-3-(2-oxo-2,3-dihydro-1H-benzoimidazol-4-yloxy)-propylamino]-piperidin-1-yl}-benzenesulfonamide], for which the melting point was 69 to 75 °C. Besides, in data set [1], the EC50 came to 10 nM and the “beta-3 (IA) maximal response relative to isoproterenol” value is on record as “(1)”.

In turn, `CS(=O)(=O)Nc1cc([C@@H](O)CNC2CCN(c3ccc(S(=O)(=O)N(CC(=O)O)Cc4cc(F)ccc4F)cc3)CC2)ccc1O` (as salt: salt) [Example 63, 2-{(2,5-Difluorobenzyl)[(4-{4-[((2R)-2-hydroxy-2-{4-hydroxy-3-[(methylsulfonyl)-amino]phenyl}ethyl)amino]-1-piperidinyl}phenyl)sulfonyl]amino}acetic acid] showed a melting point of 80 to 82 °C.

Turning to `COc1ccc(NS(=O)(=O)c2ccc(N3CCC(NC[C@H](O)COc4cccc5[nH]c6ccccc6c45)CC3)cc2)cc1OC` [Example 10, 4-{4-[(2S)-3-(9H-Carbazol-4-yloxy)-2-hydroxy-propylamino]-piperidin-1-yl}-N-(3,4-dimethoxy-phenyl)-benzenesulfonamide], the melting point was in the range of 58 to 64 °C. Also, in data set [1], the EC50 was 100 nM and the “beta-3 (IA) maximal response relative to isoproterenol” value is “(0.45)”.

On to `CS(=O)(=O)Nc1cc([C@@H](O)CNC2CCN(c3ccc(S(=O)(=O)NCC(=O)O)cc3)CC2)ccc1O` (as salt: salt) [Example 53, 2-{[(4-{4-[((2R)-2-hydroxy-2-{4-hydroxy-3-[(methylsulfonyl)amino]phenyl}ethyl)amino]-1-piperidinyl}phenyl)sulfonyl]amino}acetic Acid], for which the melting point was in the range of 170 to 172 °C.

For `COc1ccc(NS(=O)(=O)c2ccc(N3CCC(NC[C@H](O)COc4ccc(OCc5ccccc5)cc4)CC3)cc2)cc1OC` [Example 9, 4-{4-[(2S)-3-(4-Benzyloxy-phenoxy)-2-hydroxy-propylamino]-piperidin-1-yl}-N-(3,4-dimethoxy-phenyl)-benzenesulfonamide], the melting point fell in the range of 113 to 121 °C.

On to `CS(=O)(=O)Nc1cc([C@@H](O)CNC2CCN(c3ccc(S(=O)(=O)N4CCN(CC(=O)O)CC4)cc3)CC2)ccc1O` (as salt: sodium) [Example 65], for which the melting point was 131 °C (dec.).

For the molecule `CCCCNS(=O)(=O)c1ccc(N2CCC(NC[C@H](O)COc3cccc4[nH]c5ccccc5c34)CC2)cc1` [Example 13, N-Butyl-4-{4-[(2S)-3-(9H-carbazol-4-yloxy)-2-hydroxy-propylamino]-piperidin-1-yl}-benzenesulfonamide], the melting point lay within 166 to 179 °C. In data set [1], the EC50 came out at 50 nM and the “beta-3 (IA) maximal response relative to isoproterenol” value is given as “(0.7)”.

For the molecule `O=C1CN(S(=O)(=O)c2ccc(N3CCC(NC[C@H](O)COc4cccc5[nH]c(=O)[nH]c45)CC3)cc2)C(=O)N1` [Example 49, 1-(4-{4-[(2S)-2-Hydroxy-3-(2-oxo-2,3-dihydro-1H-benzoimidazol-4-yloxy)-propylamino]-piperidin-1-yl}-benzenesulfonyl)-imidazolidine-2,4-dione], the melting point is 230 °C (dec.). Also, in data set [1], the 50% effective concentration (EC50) was 9 nM and the “beta-3 (IA) maximal response relative to isoproterenol” value is recorded as “(0.96)”.

For the molecule `CNC(=O)C1CCCN1S(=O)(=O)c1ccc(N2CCC(NC[C@H](O)COc3cccc4[nH]c(=O)[nH]c34)CC2)cc1` (stereo partly drawn) [Example 17, 1-(4-{4-[(2S)-2-Hydroxy-3-(2-oxo-2,3-dihydro-1H-benzoimidazol-4-yloxy)-propylamino]-piperidin-1-yl}-benzenesulfonyl)-pyrrolidine-2-carboxylic Acid Methylamide], the melting point fell in the range of 36 to 39 °C. In addition, in data set [1], the EC50 worked out at 28 nM and the “beta-3 (IA) maximal response relative to isoproterenol” value is reported as “(0.81)”.

`COC(=O)N(CC(=O)O)S(=O)(=O)c1ccc(N2CCC(NC[C@H](O)c3ccc(O)c(NS(C)(=O)=O)c3)CC2)cc1` (as salt: salt) [Example 60, [[(4-{4-[((2R)-2-Hydroxy-2-{4-hydroxy-3-[(methylsulfonyl)amino]phenyl}-ethyl)amino]piperidin-1-yl}phenyl)sulfonyl](methoxycarbonyl)amino]acetic Acid] yielded a melting point of 60 °C.

For the molecule `COc1ccc(NS(=O)(=O)c2ccc(N3CCC(NC[C@H](O)COc4ccc(O)cc4)CC3)cc2)cc1OC` [Example 11, N-(3,4-Dimethoxy-phenyl)-4-{4-[(2S)-2-hydroxy-3-(4-hydroxy-phenoxy)-propylamino]-piperidin-1-yl}-benzenesulfonamide], the melting point lay in the range of 101 to 106 °C. Further, in data set [1], the EC50 amounted to 330 nM and the “beta-3 (IA) maximal response relative to isoproterenol” value was “(0.83)”.

Regarding `CCOC(=O)CN(C(C)C)S(=O)(=O)c1ccc(N2CCC(NC[C@H](O)c3ccc(O)c(NS(C)(=O)=O)c3)CC2)cc1` [Example 44], in data set [2], the EC50 is 12000 nM and the “beta-1 (IA) maximal response relative to isoproterenol” value is “(0.71)”. Further, in data set [1], the EC50 was determined as 3 nM and the “beta-3 (IA) maximal response relative to isoproterenol” value is “(0.95)”. For the same molecule, in data set [3], the EC50 was found to be 2000 nM and the “beta-2 (IA) maximal response relative to isoproterenol” value is “(0.43)”.
